# Laboratory results taken from the NIST ThermoML archive (doi:10.1021/je0503554).
# Values joined by “and” are separate entries in the source; they are usually repeats but may differ in a detail not shown here. Equal values may be shown once. ± gives the expanded uncertainty stated by the source.
# Experiment: activity coefficient (dimensionless); of the first substance listed, at infinite dilution; xn = mol fraction of the nth substance listed
# Conditions: Liquid, Chromatography, x1 = 0
structure (smiles),measurement,setting,value
"C1=CCCC=C1 [1,3-cyclohexadiene] + CCCCCC[n+]1ccn(C)c1.O=S(=O)([N-]S(=O)(=O)C(F)(F)F)C(F)(F)F",activity coefficient,312.05 K,1.8 ± 0.12
same,activity coefficient,322.65 K,1.76 ± 0.12
same,activity coefficient,333.15 K,1.72 ± 0.12
same,activity coefficient,343.65 K,1.67 ± 0.11
same,activity coefficient,354.25 K,1.62 ± 0.11
"C1COCCO1 [1,4-dioxane] + CCCCCC[n+]1ccn(C)c1.O=S(=O)([N-]S(=O)(=O)C(F)(F)F)C(F)(F)F",activity coefficient,375.15 K,0.04
same,activity coefficient,396.15 K,0.047
C=CCCCCCCCC [1-decene] + CCCCCC[n+]1ccn(C)c1.O=S(=O)([N-]S(=O)(=O)C(F)(F)F)C(F)(F)F,activity coefficient,312.25 K,16 ± 1.1
same,activity coefficient,322.85 K,15.2 ± 1
same,activity coefficient,333.15 K,14.1 ± 0.96
same,activity coefficient,333.25 K,14.4 ± 0.98
same,activity coefficient,343.75 K,13.5 and 13.3
same,activity coefficient,354.15 K,13.1 ± 0.89
same,activity coefficient,364.55 K,11.9 ± 0.81
C=CCCCCCCCCCC [1-dodecene] + CCCCCC[n+]1ccn(C)c1.O=S(=O)([N-]S(=O)(=O)C(F)(F)F)C(F)(F)F,activity coefficient,333.15 K,25.6 ± 1.8
same,activity coefficient,343.75 K,23.1 and 22.7
same,activity coefficient,354.15 K,21.1 and 20.5
same,activity coefficient,364.55 K,19.3 ± 1.3
same,activity coefficient,364.65 K,18.7 ± 1.3
same,activity coefficient,374.95 K,16.9 ± 1.1
C=CCCCCC [1-heptene] + CCCCCC[n+]1ccn(C)c1.O=S(=O)([N-]S(=O)(=O)C(F)(F)F)C(F)(F)F,activity coefficient,301.95 K,6.36 ± 0.43
same,activity coefficient,312.45 K,6.18 ± 0.42
same,activity coefficient,322.95 K,5.96 ± 0.41
same,activity coefficient,333.45 K,5.69 ± 0.39
same,activity coefficient,343.95 K,5.44 ± 0.37
same,activity coefficient,354.35 K,5.26 ± 0.36
C=CCCCCCCC [1-nonene] + CCCCCC[n+]1ccn(C)c1.O=S(=O)([N-]S(=O)(=O)C(F)(F)F)C(F)(F)F,activity coefficient,312.25 K,12.5 ± 0.85
same,activity coefficient,322.75 K,11.8 ± 0.81
same,activity coefficient,333.15 K,11.2 ± 0.76
same,activity coefficient,333.35 K,11.1 ± 0.75
same,activity coefficient,343.75 K,10.5 ± 0.71
same,activity coefficient,354.15 K,9.99 ± 0.68
same,activity coefficient,364.55 K,9.54 ± 0.65
C=CCCC [1-pentene] + CCCCCC[n+]1ccn(C)c1.O=S(=O)([N-]S(=O)(=O)C(F)(F)F)C(F)(F)F,activity coefficient,301.95 K,3.63 ± 0.23
same,activity coefficient,312.45 K,3.54 ± 0.23
same,activity coefficient,322.95 K,3.43 ± 0.24
same,activity coefficient,333.45 K,3.39 ± 0.25
C=CCCCCCCCCC [1-undecene] + CCCCCC[n+]1ccn(C)c1.O=S(=O)([N-]S(=O)(=O)C(F)(F)F)C(F)(F)F,activity coefficient,322.65 K,21 ± 1.4
same,activity coefficient,333.15 K,19.2 ± 1.3
same,activity coefficient,343.75 K,17.4 ± 1.2
same,activity coefficient,359.4 K,15.4 ± 1.1
same,activity coefficient,369.85 K,14.3 ± 0.97
same,activity coefficient,375.05 K,14.1 ± 0.96
CC(C)CO [2-methyl-1-propanol] + CCCCCC[n+]1ccn(C)c1.O=S(=O)([N-]S(=O)(=O)C(F)(F)F)C(F)(F)F,activity coefficient,301.65 K,2.46 ± 0.17
same,activity coefficient,312.15 K,2.19 ± 0.15
same,activity coefficient,322.85 K,1.9 ± 0.13
same,activity coefficient,333.35 K,1.68 ± 0.11
CCC(C)(C)O [2-methylbutan-2-ol] + CCCCCC[n+]1ccn(C)c1.O=S(=O)([N-]S(=O)(=O)C(F)(F)F)C(F)(F)F,activity coefficient,301.65 K,1.7 ± 0.11
same,activity coefficient,312.25 K,1.53 ± 0.1
same,activity coefficient,322.75 K,1.4 ± 0.09
same,activity coefficient,333.25 K,1.3 ± 0.08
same,activity coefficient,343.75 K,1.22 ± 0.08
same,activity coefficient,354.05 K,1.14 ± 0.07
same,activity coefficient,364.55 K,1.06 ± 0.07
CC(C)(C)O [2-methylpropan-2-ol] + CCCCCC[n+]1ccn(C)c1.O=S(=O)([N-]S(=O)(=O)C(F)(F)F)C(F)(F)F,activity coefficient,301.65 K,1.7 ± 0.11
same,activity coefficient,312.15 K,1.51 ± 0.1
same,activity coefficient,322.85 K,1.34 ± 0.09
same,activity coefficient,333.35 K,1.21 ± 0.08
CC(C)=O [acetone] + CCCCCC[n+]1ccn(C)c1.O=S(=O)([N-]S(=O)(=O)C(F)(F)F)C(F)(F)F,activity coefficient,301.75 K,0.352 ± 0.032
same,activity coefficient,302.25 K,0.352 ± 0.032
same,activity coefficient,312.25 K,0.357 ± 0.033
same,activity coefficient,322.85 K,0.362 ± 0.033
same,activity coefficient,333.35 K,0.366 ± 0.033
same,activity coefficient,343.85 K,0.371 ± 0.033
same,activity coefficient,354.25 K,0.375 ± 0.033
CC#N [acetonitrile] + CCCCCC[n+]1ccn(C)c1.O=S(=O)([N-]S(=O)(=O)C(F)(F)F)C(F)(F)F,activity coefficient,312.25 K,0.456 ± 0.036
same,activity coefficient,322.85 K,0.446 ± 0.036
same,activity coefficient,333.35 K,0.434 ± 0.035
same,activity coefficient,343.85 K,0.426 ± 0.035
same,activity coefficient,354.25 K,0.413 ± 0.034
c1ccccc1 [benzene] + CCCCCC[n+]1ccn(C)c1.O=S(=O)([N-]S(=O)(=O)C(F)(F)F)C(F)(F)F,activity coefficient,301.65 K,0.779 and 0.778
same,activity coefficient,306.95 K,0.776 ± 0.051
same,activity coefficient,312.25 K,0.776 ± 0.051
same,activity coefficient,322.75 K,0.777 ± 0.051
same,activity coefficient,322.85 K,0.773 ± 0.051
same,activity coefficient,333.25 K,0.777 and 0.774
same,activity coefficient,343.75 K,0.769 ± 0.05
CCCCO [butan-1-ol] + CCCCCC[n+]1ccn(C)c1.O=S(=O)([N-]S(=O)(=O)C(F)(F)F)C(F)(F)F,activity coefficient,322.65 K,2.06 ± 0.14
same,activity coefficient,333.15 K,1.83 ± 0.12
same,activity coefficient,343.65 K,1.67 ± 0.11
same,activity coefficient,354.15 K,1.53 ± 0.1
CCC(C)O (stereo not given) [butan-2-ol] + CCCCCC[n+]1ccn(C)c1.O=S(=O)([N-]S(=O)(=O)C(F)(F)F)C(F)(F)F,activity coefficient,301.65 K,2.14 ± 0.15
same,activity coefficient,312.15 K,1.9 ± 0.13
same,activity coefficient,322.85 K,1.66 ± 0.11
same,activity coefficient,333.35 K,1.47 ± 0.1
CCCC=O [butanal] + CCCCCC[n+]1ccn(C)c1.O=S(=O)([N-]S(=O)(=O)C(F)(F)F)C(F)(F)F,activity coefficient,301.75 K,0.578 ± 0.041
same,activity coefficient,312.25 K,0.576 ± 0.041
same,activity coefficient,322.85 K,0.574 ± 0.041
same,activity coefficient,333.35 K,0.572 ± 0.041
CCCCc1ccccc1 [butylbenzene] + CCCCCC[n+]1ccn(C)c1.O=S(=O)([N-]S(=O)(=O)C(F)(F)F)C(F)(F)F,activity coefficient,354.25 K,2.72 ± 0.19
same,activity coefficient,364.65 K,2.69 ± 0.18
same,activity coefficient,375.15 K,2.66 ± 0.18
same,activity coefficient,385.65 K,2.62 ± 0.18
C1CCCCC1 [cyclohexane] + CCCCCC[n+]1ccn(C)c1.O=S(=O)([N-]S(=O)(=O)C(F)(F)F)C(F)(F)F,activity coefficient,300.95 K,5.65 ± 0.39
same,activity coefficient,312.25 K,5.23 ± 0.36
same,activity coefficient,322.85 K,4.9 ± 0.33
same,activity coefficient,333.25 K,4.59 ± 0.31
OC1CCCCC1 [cyclohexanol] + CCCCCC[n+]1ccn(C)c1.O=S(=O)([N-]S(=O)(=O)C(F)(F)F)C(F)(F)F,activity coefficient,354.05 K,1.87 ± 0.13
same,activity coefficient,364.55 K,1.6 ± 0.11
same,activity coefficient,374.95 K,1.43 ± 0.09
same,activity coefficient,385.45 K,1.29 ± 0.08
same,activity coefficient,395.95 K,1.2 ± 0.08
C1=CCCCC1 [cyclohexene] + CCCCCC[n+]1ccn(C)c1.O=S(=O)([N-]S(=O)(=O)C(F)(F)F)C(F)(F)F,activity coefficient,301.85 K,3.41 ± 0.23
same,activity coefficient,312.25 K,3.24 ± 0.22
same,activity coefficient,322.85 K,3.08 ± 0.21
same,activity coefficient,333.25 K,2.94 ± 0.2
same,activity coefficient,343.75 K,2.83 ± 0.19
CCCCCCCCCC [decane] + CCCCCC[n+]1ccn(C)c1.O=S(=O)([N-]S(=O)(=O)C(F)(F)F)C(F)(F)F,activity coefficient,307.05 K,28.5 ± 1.9
same,activity coefficient,312.35 K,27.4 ± 1.9
same,activity coefficient,322.85 K,25.6 ± 1.8
same,activity coefficient,333.35 K,22.9 ± 1.6
CCCCCCCCCCCC [dodecane] + CCCCCC[n+]1ccn(C)c1.O=S(=O)([N-]S(=O)(=O)C(F)(F)F)C(F)(F)F,activity coefficient,333.35 K,39.6 ± 2.7
same,activity coefficient,343.75 K,36.4 ± 2.5
same,activity coefficient,354.25 K,34.2 ± 2.3
same,activity coefficient,364.75 K,30.3 ± 2.1
CCO [ethanol] + CCCCCC[n+]1ccn(C)c1.O=S(=O)([N-]S(=O)(=O)C(F)(F)F)C(F)(F)F,activity coefficient,301.95 K,1.95 ± 0.13
same,activity coefficient,312.45 K,1.71 ± 0.11
same,activity coefficient,323.05 K,1.51 ± 0.1
same,activity coefficient,333.45 K,1.35 ± 0.09
same,activity coefficient,343.95 K,1.2 ± 0.08
same,activity coefficient,354.45 K,1.08 ± 0.07
CCc1ccccc1 [ethylbenzene] + CCCCCC[n+]1ccn(C)c1.O=S(=O)([N-]S(=O)(=O)C(F)(F)F)C(F)(F)F,activity coefficient,322.85 K,1.55 ± 0.1
same,activity coefficient,333.35 K,1.55 ± 0.1
same,activity coefficient,343.85 K,1.54 ± 0.1
same,activity coefficient,354.25 K,1.53 ± 0.1
CCCCCCCO [heptan-1-ol] + CCCCCC[n+]1ccn(C)c1.O=S(=O)([N-]S(=O)(=O)C(F)(F)F)C(F)(F)F,activity coefficient,354.05 K,4.61 ± 0.31
same,activity coefficient,364.63 K,4.13 ± 0.28
same,activity coefficient,375.05 K,3.73 ± 0.25
same,activity coefficient,385.6 K,3.42 ± 0.23
CCCCCCC=O [heptanal] + CCCCCC[n+]1ccn(C)c1.O=S(=O)([N-]S(=O)(=O)C(F)(F)F)C(F)(F)F,activity coefficient,343.55 K,1.11 ± 0.07
same,activity coefficient,354.05 K,1.07 ± 0.068
same,activity coefficient,364.45 K,1.02 ± 0.064
same,activity coefficient,374.95 K,0.97 ± 0.061
same,activity coefficient,385.35 K,0.92 ± 0.058
same,activity coefficient,395.95 K,0.9 ± 0.057
CCCCCCC [heptane] + CCCCCC[n+]1ccn(C)c1.O=S(=O)([N-]S(=O)(=O)C(F)(F)F)C(F)(F)F,activity coefficient,300.95 K,11.2 ± 0.76
same,activity coefficient,312.25 K,10.4 ± 0.71
same,activity coefficient,322.85 K,9.69 ± 0.66
same,activity coefficient,333.25 K,9.09 ± 0.62
same,activity coefficient,343.75 K,8.65 ± 0.59
CCCCCCO [hexan-1-ol] + CCCCCC[n+]1ccn(C)c1.O=S(=O)([N-]S(=O)(=O)C(F)(F)F)C(F)(F)F,activity coefficient,354.05 K,2.18 ± 0.15
same,activity coefficient,364.55 K,1.97 ± 0.13
same,activity coefficient,374.95 K,1.82 ± 0.12
same,activity coefficient,385.45 K,1.67 ± 0.11
same,activity coefficient,395.95 K,1.56 ± 0.1
